According to patent US12358915B2, “METTL3 inhibitory compounds” (STORM THERAPEUTICS LTD., priority 2019, dated 2025):
Structures can show the parent of a compound that is named as a salt. Where two headings read alike, the source gives them in different places.

Molecular target: T1, METTL3/14 (Homo sapiens, UniProt Q86U44)
T1 construct: The enzyme used was full-length his-tagged METTL3; His; made in house
Assay: METTL3/14 methyltransferase assay (METTL3_14 RFMS, RapidFire mass spectrometry);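 also: recombinant His-tagged METTL3 with FLAG-tagged METTL14 from baculovirus, SAH product quantified by mass spectrometry against isotope-labelled internal standards, 60 min at room temperature, scaled between no-RNA and DMSO-only wells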
Assay type: biochemical
Conditions: read-out: METTL3_14 RFMS IC50

[1] = 5 nM METTL3/14, 0.2 μM RNA substrate, 0.5 μM SAM, lower limit of the assay IC50=5 nM, Compounds 63-265
[2] = 5 nM METTL3/14, 0.2 μM RNA substrate, 0.5 μM SAM, lower limit of the assay IC50=5 nM, Compounds 266-351
[3] = 5 nM METTL3/14, 0.2 μM RNA substrate, 0.5 μM SAM, lower limit of the assay IC50=5 nM, Compounds 1-62

T1 sequence (Q86U44 whole entry): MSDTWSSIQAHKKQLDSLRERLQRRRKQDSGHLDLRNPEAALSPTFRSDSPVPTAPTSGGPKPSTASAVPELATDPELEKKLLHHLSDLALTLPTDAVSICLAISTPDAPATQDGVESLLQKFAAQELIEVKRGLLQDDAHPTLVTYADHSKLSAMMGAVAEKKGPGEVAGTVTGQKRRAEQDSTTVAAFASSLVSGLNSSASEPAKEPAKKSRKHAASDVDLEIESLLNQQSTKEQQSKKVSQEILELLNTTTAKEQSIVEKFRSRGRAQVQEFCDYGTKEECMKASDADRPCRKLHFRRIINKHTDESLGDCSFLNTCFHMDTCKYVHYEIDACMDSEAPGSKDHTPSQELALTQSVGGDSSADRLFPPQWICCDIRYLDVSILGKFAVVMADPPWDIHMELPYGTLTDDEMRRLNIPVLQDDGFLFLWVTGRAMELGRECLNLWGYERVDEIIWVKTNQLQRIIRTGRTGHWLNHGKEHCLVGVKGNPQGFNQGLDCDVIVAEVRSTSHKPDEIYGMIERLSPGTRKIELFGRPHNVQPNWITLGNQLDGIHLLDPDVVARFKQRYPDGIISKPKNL
T1 sequence (Q9HCE5 whole entry partner): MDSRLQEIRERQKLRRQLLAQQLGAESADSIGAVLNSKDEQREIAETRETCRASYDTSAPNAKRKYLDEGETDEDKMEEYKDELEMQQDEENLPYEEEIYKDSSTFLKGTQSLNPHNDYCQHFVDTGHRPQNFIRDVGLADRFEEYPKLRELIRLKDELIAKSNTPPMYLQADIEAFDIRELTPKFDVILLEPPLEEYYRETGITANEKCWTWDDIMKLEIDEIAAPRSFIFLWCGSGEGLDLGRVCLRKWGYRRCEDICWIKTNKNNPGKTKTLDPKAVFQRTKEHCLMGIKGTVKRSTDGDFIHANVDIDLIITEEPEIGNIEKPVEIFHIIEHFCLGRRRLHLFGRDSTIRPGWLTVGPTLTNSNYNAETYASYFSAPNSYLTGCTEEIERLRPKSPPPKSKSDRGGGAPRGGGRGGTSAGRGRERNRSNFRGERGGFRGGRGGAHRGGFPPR
Method: The enzyme used was full-length his-tagged METTL3 co-expressed with full length FLAG-tagged METTL14 in a baculovirus expression system. […] After termination, plates were sealed, centrifuged and stored at 4° C. until analysis. […] Mass Spectrometry Analysis RNA methyltransferase activity was measured label free using the RapidFireTM mass spectrometry (RF/MS) platform. Stopped and stable assay plates were analyzed on the Agilent RF300 integrated autosampler/solid-phase extraction (SPE) system coupled to an ABSciex 4000 mass spectrometer for the generation of the product S-adenosyl homocysteine (SAH) and normalized to the ratio of signal of the two internal product standards, respectively. Solvent A was water containing 0.1% (v/v) TCA. Solvent B was acetonitrile/0.1% ammonium acetate (8:2, v/v). More specifically, plates were centrifuged at 4350 rpm for 10 min, samples were aspirated under vacuum for 600 ms, then loaded onto a C18 solid-phase extraction cartridge and washed for 3 s with solvent A at a flow rate of 1.5 mL/min. Retained product and internal standards were eluted with solvent B at a flow rate of 1 mL/min for 3 s and finally the cartridge was reequilibrated with solvent A for 500 ms.

Row | IC50 [1] [nM] | SMILES | other results
1 | 93.2 | CC1(CNCc2ccc3nc(CNC(=O)c4cc(=O)n5ccccc5n4)cn3c2)CCCO1 (stereo not shown) [Compound 160, N-{[6-({[(2-methyloxolan-2-yl)methyl]amino}methyl)imidazo [1,2-a]pyridin-2-yl]methyl}-4-oxo-4H-pyrido [1,2-a]pyrimidine-2-carboxamide] | 
2 |  | Cc1ccc2nc(Cn3cc(-c4cccc5[nH]nc(N)c45)nn3)cn2c1 [Example 272, 4-[1-[(6-methylimidazo[1,2-a]pyridin-2-yl)methyl]triazol-4-yl]-1H-indazol-3-amine] | IC50 [2]: 9020 nM
3 | 1580 | O=C(NCc1cn2cc(CNc3ccc(Cl)cc3)ccc2n1)c1cc(=O)n2ccccc2n1 [Compound 153, N-[(6-{[(4-chlorophenyl)amino]methyl}imidazo[1,2-a]pyridin-2-yl)methyl]-4-oxo-4H-pyrido[1,2-a] pyrimidine-2-carboxamide] | 
4 | 16.8 | CC1(CNCc2ccc3nc(CNC(=O)c4cc(=O)n5ccccc5n4)cn3c2)CC1 [Compound 121, N-{[6-({[(1-methylcyclopropyl)methyl]amino}methyl)imidazo [1,2-a]pyridin-2-yl]methyl}-4-oxo-4H-pyrido [1,2-a]pyrimidine-2-carboxamide] | 
5 | 195 | O=C(NCc1cn2cc([C@H]3COC[C@@H](C4CCCCC4)N3)ccc2n1)c1cc(=O)c2ccccc2o1 [Example 264, N-({6-[(3S,5R)-5-cyclohexylmorpholin-3-yl]imidazo[1,2-a]pyridin-2-yl}methyl)-4-oxo-4H-chromene-2-carboxamide] | 
6 | 513 | O=C(NCc1cn2cc(CNCC3CCCNC3)ccc2n1)c1cc(=O)n2ccccc2n1 (stereo not shown) [Compound 239, 4-oxo-N-{[6-({[(piperidin-3-yl)methyl]amino}methyl)imidazo[1,2-a]pyridin-2-yl]methyl}-4H-pyrido[1,2-a]pyrimidine-2-carboxamide] | 
7 | 40.2 | CCCNCc1ccc2nc(CNC(=O)c3cc(=O)n4ccccc4n3)cn2c1 [Compound 149, 4-oxo-N-({6-[(propylamino)methyl]imidazo [1,2-a]pyridin-2-yl}methyl)-4H-pyrido[1,2-a] pyrimidine-2-carboxamide] | 
8 |  | O=C(NCc1cn2ccc(F)cc2n1)c1cccc2[nH]ncc12 [Compound 5, N-({7-fluoroimidazo[1,2-a]pyridin-2-yl}methyl)-1H-indazole-4-carboxamide] | IC50 [3]: 9450 nM
9 | 6600 | O=C(NCc1cn2cc(C(F)(F)F)ccc2n1)c1cc(=O)n2ccccc2n1 [Compound 65, 4-oxo-N-{[6-(trifluoromethyl)imidazo[1,2-a]pyridin-2-yl]methyl}-4H-pyrido[1,2-a]pyrimidine-2-carboxamide] | 
10 | 917 | CCN(CC)Cc1ccc2nc(CNC(=O)c3cc(=O)n4ccccc4n3)cn2c1 [Compound 132, N-({6-[(diethylamino)methyl]imidazo [1,2-a]pyridin-2-yl}methyl)-4-oxo-4H-pyrido[1,2-a] pyrimidine-2-carboxamide] | 
11 |  | O=C(NCc1cn2cc(C(Cc3ccccc3)N(CC3CCC3)CC3CCC3)ccc2n1)c1cc(=O)n2ccccc2n1 (stereo not shown) [Example 314] | IC50: 7110 nM
12 | 225 | CC(C)(C)C1CCC(NCc2ccc3nc(CNC(=O)c4cc(=O)n5ccccc5n4)cn3c2)CC1 (stereo not shown) [Compound 162, N-[(6-{[(4-tert-butylcyclohexyl)amino]methyl}imidazo[1,2-a]pyridin-2-yl)methyl]-4-oxo-4H-pyrido[1,2-a] pyrimidine-2-carboxamide] | 
13 |  | O=C(NCc1cn2cc(CNCCO)ccc2n1)c1cc(=O)n2ccccc2n1 [Compound 52, N-[(6-{[(2-hydroxyethyl)amino]methyl}imidazo[1,2-a]pyridin-2-yl)methyl]-4-oxo-4H-pyrido[1,2-a]pyrimidine-2-carboxamide] | IC50 [3]: 267 nM
14 | 309 | O=C(NCc1cn2cc(CNCC3CCCCC3)ccc2n1)c1cc(=O)c2cc(Cl)ccc2o1 [Compound 172, 6-chloro-N-[(6-{[(cyclohexylmethyl)amino]methyl}imidazo[1,2-a]pyridin-2-yl)methyl]-4-oxo-4H-chromene-2-carboxamide] | 
15 | 109 | O=C(NCc1cn2cc(CNCC3COC3)ccc2n1)c1cc(=O)n2ccccc2n1 [Compound 111, N-{[6-({[(oxetan-3-yl)methyl]amino}methyl)imidazo[1,2-a]pyridin-2-yl]methyl}-4-oxo-4H-pyrido[1,2-a] pyrimidine-2-carboxamide] | 
16 |  | C#Cc1cc(C(=O)NCc2cn3cc(C)ccc3n2)c2cn[nH]c2c1 [Compound 14, 6-ethynyl-N-({6-methylimidazo[1,2-a]pyridin-2-yl}methyl)-1H-indazole-4-carboxamide] | IC50: 5900 nM
17 |  | Cc1ccc2nc(Cc3nnc(-c4cccc5[nH]ncc45)o3)cn2c1 [Compound 62, 2-(1H-indazol-4-yl)-5-[(6-methylimidazo[1,2-a]pyridin-2-yl)methyl]-1,3,4-oxadiazole] | IC50 [3]: 8760 nM

Row | IC50 [1] [nM] | SMILES | other results
18 | 87.2 | O=C(NCc1cn2cc(CNC[C@H]3CCCO3)ccc2n1)c1cc(=O)n2ccccc2n1 [Compound 118, 4-oxo-N-({6-[({[(2R)-oxolan-2-yl]methyl}amino)methyl]imidazo[1,2-a]pyridin-2-yl}methyl)-4H-pyrido[1,2-a]pyrimidine-2-carboxamide] | 
19 |  | Cc1ccc2nc(CNC(=O)c3cc(-c4ccn[nH]4)cc4[nH]ncc34)cn2c1 [Compound 8, N-({6-methylimidazo[1,2-a]pyridin-2-yl}methyl)-6-(1H-pyrazol-5-yl)-1H-indazole-4-carboxamide] | IC50 [3]: 4560 nM
20 |  | O=C(NCc1cn2cc([C@H]3COC[C@@H](C4CCCCC4)N3)ccc2n1)c1cccc2[nH]ncc12 (racemic) [Example 231, N-({6-[(3S,5R)-5-cyclohexylmorpholin-3-yl]imidazo[1,2-a]pyridin-2-yl}methyl)-1H-indazole-4-carboxamide] | IC50: 1220 nM
21 | 7330 | Cc1ccc2nc(CNC(=O)c3cc(=O)n4c(n3)CCCC4)cn2c1 [Compound 64, N-({6-methylimidazo [1,2-a]pyridin-2-yl}methyl)-4-oxo-4H,6H,7H,8H, 9H-pyrido[1,2-a]pyrimidine-2-carboxamide] | 
22 |  | O=C(NCc1cn2cc(C3CC3)ccc2n1)c1cc(=O)n2ccccc2n1 [Compound 59, N-({6-cyclopropylimidazo[1,2-a]pyridin-2-yl}methyl)-4-oxo-4H-pyrido[1,2-a]pyrimidine-2-carboxamide] | IC50 [3]: 939 nM
23 | 889 | O=C(NCc1cn2cc(CNCC3CCCCC3)ccc2n1)c1cc(=O)c2ccc(F)cc2o1 [Compound 180, N-[(6-{[(cyclohexylmethyl)amino]methyl}imidazo [1,2-a]pyridin-2-yl)methyl]-7-fluoro-4-oxo-4H-chromene-2-carboxamide] | 
24 | 947 | CS(=O)(=O)CCNCc1ccc2nc(CNC(=O)c3cc(=O)n4ccccc4n3)cn2c1 [Compound 96, N-[(6-{[(2-methane-sulfonylethyl)amino]methyl}imidazo[1,2-a]pyridin-2-yl)methyl]-4-oxo-4H-pyrido [1,2-a]pyrimidine-2-carboxamide] | 
25 | 1860 | CC1CN(Cc2ccc3nc(CNC(=O)c4cc(=O)n5ccccc5n4)cn3c2)CC(C)O1 (stereo not shown) [Compound 199, N-({6-[(2,6-dimethylmorpholin-4-yl)methyl]imidazo[1,2-a]pyridin-2-yl}methyl)-4-oxo-4H-pyrido[1,2-a]pyrimidine-2-carboxamide] | 
26 | 29.4 | O=C(NCc1cn2cc(CNCC3CCCCC3)ccc2n1)c1cc(=O)c2ccccc2o1 [Compound 170, N-[(6-{[(cyclohexylmethyl)amino]methyl}imidazo[1,2-a]pyridin-2-yl)methyl]-4-oxo-4H-chromene-2-carboxamide] | 
27 |  | Cc1ccc2nc(CNC(=O)c3cc(=O)c4ccccc4o3)cn2c1 [Compound 12, N-({6-methylimidazo[1,2-a]pyridin-2-yl}methyl)-4-oxo-4H-chromene-2-carboxamide] | IC50 [3]: 1410 nM
28 | 14.5 | CC1(C)CCCN(Cc2ccc3nc(CNC(=O)c4cc(=O)n5ccccc5n4)cn3c2)C1 [Compound 141, N-({6-[(3,3-dimethylpiperidin-1-yl)methyl]imidazo[1,2-a]pyridin-2-yl}methyl)-4-oxo-4H-pyrido[1,2-a]pyrimidine-2-carboxamide] | 
29 | 56.1 | O=C(NCc1cn2cc(CNCC3CCCCC3)ccc2n1)c1cc(Cl)cc2[nH]ncc12 [Compound 190, 6-chloro-N-[(6-{[(cyclohexylmethyl)amino]methyl}imidazo[1,2-a]pyridin-2-yl)methyl]-1H-indazole-4-carboxamide] | 
30 | 61.7 | O=C(NCc1cn2cc(CN3CCC(Oc4ccccc4)CC3)ccc2n1)c1cc(=O)n2ccccc2n1 [Compound 156, 4-oxo-N-({6-[(4-phenoxypiperidin-1-yl)methyl]imidazo[1,2-a]pyridin-2-yl}methyl)-4H-pyrido[1,2-a] pyrimidine-2-carboxamide] | 
31 |  | COc1cc(Br)cc2c1OCC(c1ccc3nc(CNC(=O)c4cc(=O)n5ccccc5n4)cn3c1)NC2 (stereo not shown) [Example 332] | IC50 [2]: 1700 nM
32 | 333 | O=C(NCc1cn2cc(CNCCF)ccc2n1)c1cc(=O)n2ccccc2n1 [Compound 128, N-[(6-{[(2-fluoroethyl)amino]methyl}imidazo [1,2-a]pyridin-2-yl)methyl]-4-oxo-4H-pyrido[1,2-a] pyrimidine-2-carboxamide] | 
33 |  | Cc1ccc2nc(COC(=O)c3cccc4[nH]ncc34)cn2c1 [Compound 41, {6-methylimidazo[1,2-a]pyridin-2-yl}methyl 1H-indazole-4-carboxylate hydrochloride] | IC50 [3]: 1340 nM
34 |  | O=C(NCc1cn2cc(O)ccc2n1)c1cccc2[nH]ncc12 [Compound 43, N-({6-hydroxyimidazo[1,2-a]pyridin-2-yl}methyl)-1H-indazole-4-carboxamide] | IC50 [3]: 1290 nM
